From ChEMBL document CHEMBL1156078, “Structure-activity relationship (SAR) studies of 3-(2-amino-ethyl)-5-(4-ethoxy-benzylidene)-thiazolidine-2,4-dione: development of potential substrate-specific ERK1/2 inhibitors” (Bioorg Med Chem Lett, 2009)
Each block holds one compound with its values, some of them ahead of it. Activity calls are given as the source filed them. The calls are words filed in the database; no cut-off is given here.

Experiments:
[1] = target: Ribosomal protein S6 kinase alpha-1 (Homo sapiens) (UniProt Q15418); assay: Inhibition of Rsk1 phosphorylation in PMA-stimulated human U937 cells at 10 to 50 uM after 3 hrs by Western blotting; format: cell-based; settings: U-937
Chain of Ribosomal protein S6 kinase alpha-1 (Homo sapiens) (Q15418 whole entry, the tested form may be a part): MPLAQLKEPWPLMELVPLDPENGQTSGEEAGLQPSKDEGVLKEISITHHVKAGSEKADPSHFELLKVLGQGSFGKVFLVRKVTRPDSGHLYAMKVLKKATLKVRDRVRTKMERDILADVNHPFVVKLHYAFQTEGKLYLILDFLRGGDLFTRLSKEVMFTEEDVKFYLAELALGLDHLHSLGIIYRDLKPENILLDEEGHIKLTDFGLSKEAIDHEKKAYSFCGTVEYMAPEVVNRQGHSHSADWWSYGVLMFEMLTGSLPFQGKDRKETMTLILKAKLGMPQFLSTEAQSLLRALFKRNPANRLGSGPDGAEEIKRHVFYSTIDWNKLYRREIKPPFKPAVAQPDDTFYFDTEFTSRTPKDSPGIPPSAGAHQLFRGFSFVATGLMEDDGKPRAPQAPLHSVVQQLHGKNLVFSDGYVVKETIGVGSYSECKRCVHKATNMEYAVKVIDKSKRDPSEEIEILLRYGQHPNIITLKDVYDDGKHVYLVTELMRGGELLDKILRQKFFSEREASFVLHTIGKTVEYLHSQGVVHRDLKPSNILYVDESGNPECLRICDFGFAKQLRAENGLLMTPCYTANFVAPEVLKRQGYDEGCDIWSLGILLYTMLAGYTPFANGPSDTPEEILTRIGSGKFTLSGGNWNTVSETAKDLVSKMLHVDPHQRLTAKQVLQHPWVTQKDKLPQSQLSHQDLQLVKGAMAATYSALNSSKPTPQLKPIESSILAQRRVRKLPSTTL

[2] = target: Dual specificity mitogen-activated protein kinase kinase; MEK1/2 (Homo sapiens) (UniProt P36507+Q02750); assay: Inhibition of MEK1/2 phosphorylation in PMA-stimulated human U937 cells at 50 uM after 3 hrs by Western blotting; format: cell-based; settings: U-937
Chain of Dual specificity mitogen-activated protein kinase kinase; MEK1/2 (Homo sapiens) (P36507 whole entry, looked up): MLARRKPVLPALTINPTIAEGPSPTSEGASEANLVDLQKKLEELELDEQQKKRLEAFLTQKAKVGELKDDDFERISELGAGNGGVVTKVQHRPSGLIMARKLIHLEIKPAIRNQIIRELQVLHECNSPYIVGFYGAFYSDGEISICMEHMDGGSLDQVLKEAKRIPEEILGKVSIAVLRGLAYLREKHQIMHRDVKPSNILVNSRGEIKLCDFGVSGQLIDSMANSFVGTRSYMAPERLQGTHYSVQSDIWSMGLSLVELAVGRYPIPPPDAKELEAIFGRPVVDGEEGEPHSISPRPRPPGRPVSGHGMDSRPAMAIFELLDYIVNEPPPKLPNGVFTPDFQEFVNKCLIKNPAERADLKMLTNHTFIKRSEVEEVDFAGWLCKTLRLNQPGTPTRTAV
Chain of Dual specificity mitogen-activated protein kinase kinase; MEK1/2 (Homo sapiens) (Q02750 whole entry, looked up): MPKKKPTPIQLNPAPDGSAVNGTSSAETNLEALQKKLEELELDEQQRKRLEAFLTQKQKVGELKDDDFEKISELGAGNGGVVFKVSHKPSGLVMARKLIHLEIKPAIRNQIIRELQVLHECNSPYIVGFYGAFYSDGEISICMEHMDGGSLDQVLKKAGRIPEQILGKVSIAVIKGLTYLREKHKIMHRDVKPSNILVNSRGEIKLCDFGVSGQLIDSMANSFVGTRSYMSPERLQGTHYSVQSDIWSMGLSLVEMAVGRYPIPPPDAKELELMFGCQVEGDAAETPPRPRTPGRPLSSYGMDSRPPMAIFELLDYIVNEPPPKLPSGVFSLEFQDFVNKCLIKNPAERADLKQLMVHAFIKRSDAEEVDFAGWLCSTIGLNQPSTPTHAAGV

[3] = target: Ribosomal protein S6 kinase alpha-1 (Homo sapiens) (UniProt Q15418); assay: Inhibition of Rsk1 phosphorylation in PMA-stimulated human U937 cells at 50 uM after 3 hrs by Western blotting; format: cell-based; settings: U-937
[4] = target: T1, ETS domain-containing protein Elk-1 (Homo sapiens) (UniProt P19419); assay: Inhibition of Elk1 phosphorylation in PMA-stimulated human U937 cells at 50 uM after 3 hrs by Western blotting; format: cell-based; settings: U-937
T1 sequence (whole entry): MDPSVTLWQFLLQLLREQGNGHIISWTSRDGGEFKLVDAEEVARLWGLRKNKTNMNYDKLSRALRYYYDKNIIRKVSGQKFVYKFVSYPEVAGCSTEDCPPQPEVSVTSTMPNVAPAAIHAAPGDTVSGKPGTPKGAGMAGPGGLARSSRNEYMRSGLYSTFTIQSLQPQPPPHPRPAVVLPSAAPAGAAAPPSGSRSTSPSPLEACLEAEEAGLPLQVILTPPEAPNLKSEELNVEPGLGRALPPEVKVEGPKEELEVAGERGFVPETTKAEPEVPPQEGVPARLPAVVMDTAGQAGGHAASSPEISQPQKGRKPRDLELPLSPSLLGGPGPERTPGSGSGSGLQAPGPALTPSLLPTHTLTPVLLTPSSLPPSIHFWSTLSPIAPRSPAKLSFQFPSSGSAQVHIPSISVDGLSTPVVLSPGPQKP

[5] = target: T2, Mitogen-activated protein kinase; ERK1/ERK2 (Homo sapiens) (UniProt P27361+P28482); assay: Inhibition of ERK1/2 phosphorylation in PMA-stimulated human U937 cells at 50 uM after 3 hrs by Western blotting; format: cell-based; settings: U-937
T2 sequence (P27361 whole entry, looked up): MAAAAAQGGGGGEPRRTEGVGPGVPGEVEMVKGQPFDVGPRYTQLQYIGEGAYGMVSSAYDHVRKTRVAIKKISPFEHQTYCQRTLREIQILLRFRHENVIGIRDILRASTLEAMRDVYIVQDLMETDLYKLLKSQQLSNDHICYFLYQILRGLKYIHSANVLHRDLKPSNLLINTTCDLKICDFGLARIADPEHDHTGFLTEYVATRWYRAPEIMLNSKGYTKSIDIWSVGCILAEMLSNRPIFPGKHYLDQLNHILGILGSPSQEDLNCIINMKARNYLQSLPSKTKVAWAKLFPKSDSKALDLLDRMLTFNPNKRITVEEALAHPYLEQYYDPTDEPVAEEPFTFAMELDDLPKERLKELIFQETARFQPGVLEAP
T2 sequence (P28482 whole entry, looked up): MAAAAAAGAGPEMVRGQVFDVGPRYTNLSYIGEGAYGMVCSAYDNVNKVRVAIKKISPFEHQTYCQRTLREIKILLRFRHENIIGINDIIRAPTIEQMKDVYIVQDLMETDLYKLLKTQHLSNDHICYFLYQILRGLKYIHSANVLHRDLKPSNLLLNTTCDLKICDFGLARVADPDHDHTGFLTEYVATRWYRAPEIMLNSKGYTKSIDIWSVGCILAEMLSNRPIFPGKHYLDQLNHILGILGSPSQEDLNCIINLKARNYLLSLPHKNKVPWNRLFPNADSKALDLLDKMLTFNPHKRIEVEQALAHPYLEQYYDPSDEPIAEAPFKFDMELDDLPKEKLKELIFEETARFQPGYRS

U-937 [6] = assay: Induction of apoptosis in human U937 assessed as loss of mitochondrial membrane potential after 18 hrs by DiOC6 uptake assay; format: functional, cell-based
[7] = target: MAP kinase p38 (Homo sapiens) (UniProt O15264+Q15759+Q16539+P53778); assay: Inhibition of p38 phosphorylation in PMA-stimulated human U937 cells at 50 uM after 3 hrs by Western blotting; format: cell-based; settings: U-937
[8] = target: Mitogen-activated protein kinase 1 (Homo sapiens) (UniProt P28482); assay: Inhibition of recombinant ERK2-mediated myelin basic protein phosphorylation at 50 uM after 30 mins by SDS-PAGE
Chain of Mitogen-activated protein kinase 1 (Homo sapiens) (P28482 whole entry): as the sequence (P28482 whole entry, looked up) above

U-937 [9] = assay: Cytotoxicity against human U937 cells assessed as cell viability up to 30 uM after 24 hrs by MTT assay; format: functional, cell-based
[10] = Inhibition of JNK phosphorylation
[11] = Inhibition of MEK phosphorylation
[12] = target: T2, Mitogen-activated protein kinase; ERK1/ERK2 (Homo sapiens); assay: Inhibition of ERK1/2 phosphorylation in EGF-stimulated human SKOV3 cells; format: cell-based; settings: SK-OV-3
[13] = target: T2, Mitogen-activated protein kinase; ERK1/ERK2 (Homo sapiens); assay: Inhibition of ERK1/2 phosphorylation in PMA-stimulated human U937 cells at 10 to 50 uM after 3 hrs by Western blotting; format: cell-based; settings: U-937
U-937 [14] = assay: Antiproliferative activity human U937 cells by [3H]thymidine incorporation assay; format: functional, cell-based

SMILES: NCCN1C(=O)S/C(=C\c2cccc(F)c2)C1=O
inhibition [1]: inactive

SMILES: NCCN1C(=O)S/C(=C\c2cccc3ccccc23)C1=O
inhibition [2]: Active
inhibition [3]: Active
inhibition [4]: Active
inhibition [5]: Active
Activity (U-937 [6]): inactive
inhibition [7]: Active

SMILES: NCCN1C(=O)S/C(=C\c2cccc([N+](=O)[O-])c2)C1=O
inhibition [1]: inactive

SMILES: CCOc1ccc(/C=C2\SC(=O)N(CCN(C)C)C2=O)cc1
inhibition [1]: inactive

SMILES: CCOc1ccc(/C=C2\SC(=O)N(CCN)C2=O)cc1
inhibition [3]: Active
inhibition [8]: inactive
Activity (U-937 [9]): inactive
inhibition [10]: inactive
inhibition [5]: inactive
inhibition [11]: inactive
inhibition [12]: inactive
inhibition [7]: inactive

SMILES: NCCN1C(=O)S/C(=C\c2ccc3c(c2)OCCO3)C1=O
inhibition [2]: Active
inhibition [3]: Active
inhibition [4]: Active
inhibition [5]: Active
Activity (U-937 [6]): inactive
inhibition [7]: Active

SMILES: NCCN1C(=O)S/C(=C\c2ccccc2)C1=O
inhibition [13]: inactive
inhibition [1]: inactive

SMILES: NCCN1C(=O)S/C(=C\[C@H](O)[C@@H](O)c2ccccc2)C1=O
inhibition [5]: inactive

SMILES: CCOc1cccc(/C=C2\SC(=O)N(CCN)C2=O)c1
inhibition [13]: inactive
inhibition [1]: inactive

SMILES: CCOc1ccccc1/C=C1\SC(=O)N(CCN)C1=O
inhibition [8]: inactive
inhibition [4]: Active
Activity (U-937 [14]): Dose-dependent effect
Activity (U-937 [9]): inactive
inhibition [13]: inactive
inhibition [10]: inactive
Activity (U-937 [6]): Dose-dependent effect
inhibition [11]: inactive
inhibition [1]: Active
inhibition [12]: inactive
inhibition [7]: inactive

SMILES: CN(C)CCN1C(=O)S/C(=C\C/C=C/c2ccccc2)C1=O
inhibition [3]: Active
inhibition [4]: Active
inhibition [5]: Active
inhibition [7]: inactive

SMILES: CCOc1ccc(/C=C2\SC(=O)N(CCNC(C)=O)C2=O)cc1
inhibition [1]: inactive

Further lines, results first:

inhibition [1]: inactive
SMILES: NCCN1C(=O)S/C(=C\c2ccc(F)cc2)C1=O

inhibition [1]: inactive
SMILES: NCCN1C(=O)S/C(=C\c2ccc([N+](=O)[O-])cc2)C1=O

inhibition [13]: inactive
inhibition [1]: inactive
SMILES: Cc1ccc(/C=C2\SC(=O)N(CCN)C2=O)cc1

inhibition [13]: inactive
inhibition [1]: inactive
SMILES: COc1ccc(/C=C2\SC(=O)N(CCN)C2=O)cc1

inhibition [13]: inactive
inhibition [1]: Active
SMILES: NCCN1C(=O)S/C(=C\c2ccc(-c3ccc(Cl)cc3)cc2)C1=O
